# In ChEMBL document CHEMBL1201862, “PubChem BioAssay data set” (2004):
#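 Five compound concentrations were applied to cells in 96-well plates for 48 hours; endpoints were derived by simple linear interpolation of the resulting dose-response curve. Here, GI50 denotes the concentration required for 50% inhibition of growth.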 The source made the active and inactive calls. Rule as the data show it: active = GI50 up to about 1.1 µM and inactive = higher.
# Experiments:
# Experiment in all cases: NCI anticancer screen, dose series, 48 h
# [1] = tested on: 786-0
# [2] = tested on: A549
# [3] = tested on: CAKI-1
# [4] = tested on: CCRF-CEM
# [5] = tested on: HCC 2998
# [6] = tested on: HOP-62
# [7] = tested on: HT-29
# [8] = tested on: KM12
# [9] = tested on: LOX IMVI
# [10] = tested on: Malme-3M
# [11] = tested on: OVCAR-5
# [12] = tested on: SF-268
# [13] = tested on: SK-MEL-28
# [14] = tested on: HCT-15
# [15] = tested on: NCI-H522
Compound,GI50 [1],GI50 [2],GI50 [3],GI50 [4],GI50 [5],GI50 [6],GI50 [7],GI50 [8],GI50 [9],GI50 [10],GI50 [11],GI50 [12],GI50 [13],GI50 [14] [µM],GI50 [15]
COC(=O)C1=C(c2ccc(OC)c(OC)c2)OC(c2cc(OC)c(OC)c(OC)c2)C1 (configuration not stated),20 µM (inactive),> 100 µM (inactive),60.3 µM (inactive),> 100 µM (inactive),> 100 µM (inactive),19.7 µM (inactive),> 100 µM (inactive),33.1 µM (inactive),99.5 µM (inactive),42.4 µM (inactive),> 100 µM (inactive),27.9 µM (inactive),> 100 µM (inactive),–,–
COC1=CC23C=CC1[C@@H](c1ccccc1)C2=C(C)C(=O)N3C(=O)NC1CCCCC1 (some centres not stated),15.5 µM (inactive),24.7 µM (inactive),16.9 µM (inactive),25.7 µM (inactive),21.6 µM (inactive),21.5 µM (inactive),19.7 µM (inactive),31.3 µM (inactive),17 µM (inactive),–,23.7 µM (inactive),15.8 µM (inactive),18.5 µM (inactive),5.11,18.9 µM (inactive)
O=c1ccn(C2(CO)C=C(CO)C(O)C2O)c(=O)[nH]1 (configuration not stated),> 25.7 µM (inactive),> 25.7 µM (inactive),> 25.7 µM (inactive),–,> 25.7 µM (inactive),> 25.7 µM (inactive),–,> 25.7 µM (inactive),–,> 25.7 µM (inactive),–,> 25.7 µM (inactive),> 25.7 µM (inactive),> 25.7,> 25.7 µM (inactive)
COc1cc(/C=C2\CCC(C)(CN(C)C)C2=O)cc(OC)c1OC (configuration not stated),> 100 µM (inactive),> 100 µM (inactive),> 100 µM (inactive),52.4 µM (inactive),> 100 µM (inactive),> 100 µM (inactive),> 100 µM (inactive),> 100 µM (inactive),> 100 µM (inactive),> 100 µM (inactive),> 100 µM (inactive),> 100 µM (inactive),> 100 µM (inactive),> 100,50.7 µM (inactive)
COC(=O)C1=C(C)N(NC(N)=O)C2(N)N(NC(N)=O)C(C)=C(C(=O)OC)C12C#N (configuration not stated),> 100 µM (inactive),> 100 µM (inactive),> 100 µM (inactive),> 100 µM (inactive),> 100 µM (inactive),> 100 µM (inactive),> 100 µM (inactive),> 100 µM (inactive),> 100 µM (inactive),> 100 µM (inactive),> 100 µM (inactive),> 100 µM (inactive),> 100 µM (inactive),> 100,> 100 µM (inactive)
O=C1C=C(Nc2ccccc2C(=O)CC(=O)C(=O)Nc2ccc(Cl)c(Cl)c2)c2ccccc2C1=O,35.3 µM (inactive),53.1 µM (inactive),87.3 µM (inactive),4.76 µM (inactive),> 100 µM (inactive),> 100 µM (inactive),> 100 µM (inactive),59.6 µM (inactive),–,12.6 µM (inactive),> 100 µM (inactive),19.9 µM (inactive),10.6 µM (inactive),20.4,18.6 µM (inactive)
COc1ccc(S(=O)(=O)N/N=C/c2cc(I)cc([N+](=O)[O-])c2O)cc1OC,45.9 µM (inactive),> 100 µM (inactive),31.6 µM (inactive),34.4 µM (inactive),50.6 µM (inactive),–,46.3 µM (inactive),31.3 µM (inactive),43.3 µM (inactive),28.7 µM (inactive),> 100 µM (inactive),–,–,36.6,–
CC1(C)CCc2cc3c(cc2O1)OC(C)(C)C1c2c(ccc4c2CCC(C)(C)O4)OC31 (configuration not stated),> 100 µM (inactive),> 100 µM (inactive),99.8 µM (inactive),> 100 µM (inactive),–,> 100 µM (inactive),> 100 µM (inactive),> 100 µM (inactive),> 100 µM (inactive),–,68.4 µM (inactive),> 100 µM (inactive),–,> 100,> 100 µM (inactive)
CON1C(=O)C2(CCCCC2)C(=O)C12C=CC(C)CC2 (configuration not stated),> 100 µM (inactive),> 100 µM (inactive),> 100 µM (inactive),> 100 µM (inactive),> 100 µM (inactive),> 100 µM (inactive),62.5 µM (inactive),> 100 µM (inactive),> 100 µM (inactive),> 100 µM (inactive),–,> 100 µM (inactive),> 100 µM (inactive),> 100,95.1 µM (inactive)
CCOC(=O)c1cnc2oc(-c3ccc(OC)cc3)nn2c1=O,> 100 µM (inactive),> 100 µM (inactive),–,–,> 100 µM (inactive),–,> 100 µM (inactive),> 100 µM (inactive),–,> 100 µM (inactive),> 100 µM (inactive),> 100 µM (inactive),> 100 µM (inactive),> 100,79.1 µM (inactive)
Nc1ncnc2c1ncn2CC(O)CO (configuration not stated),> 100 µM (inactive),> 100 µM (inactive),> 100 µM (inactive),> 100 µM (inactive),86.7 µM (inactive),–,> 100 µM (inactive),> 100 µM (inactive),> 100 µM (inactive),> 100 µM (inactive),–,> 100 µM (inactive),> 100 µM (inactive),> 100,> 100 µM (inactive)
CCCCCCCCCCCC(=O)OCC1OC(n2cc(F)c(=O)[nH]c2=O)C(N)C(O)C1O (configuration not stated),> 100 µM (inactive),> 100 µM (inactive),49 µM (inactive),31.2 µM (inactive),> 100 µM (inactive),> 100 µM (inactive),55.3 µM (inactive),77.4 µM (inactive),–,> 100 µM (inactive),11.5 µM (inactive),> 100 µM (inactive),> 100 µM (inactive),> 100,75.3 µM (inactive)
S=c1nc2c(c[nH]1)C1c3ccccc3C2c2ccccc21,> 100 µM (inactive),68.9 µM (inactive),–,55 µM (inactive),–,> 100 µM (inactive),> 10 µM (inactive),44.1 µM (inactive),> 100 µM (inactive),> 100 µM (inactive),> 100 µM (inactive),> 100 µM (inactive),> 100 µM (inactive),80.2,46 µM (inactive)
Cc1ccc(NS(=O)(=O)c2cc(C(C)(C)C)ccc2OCCOCCOCCOc2ccc(C(C)(C)C)cc2S(=O)(=O)Nc2ccc(C)cc2)cc1,> 100 µM (inactive),> 100 µM (inactive),> 100 µM (inactive),> 100 µM (inactive),> 100 µM (inactive),> 100 µM (inactive),> 100 µM (inactive),> 100 µM (inactive),> 100 µM (inactive),> 100 µM (inactive),> 100 µM (inactive),> 100 µM (inactive),> 100 µM (inactive),> 100,–
NC(=O)N/N=C(\C(=O)C(=O)Nc1ccc(Cl)c(C(F)(F)F)c1)c1nc2ccc(C(=O)c3ccccc3)cc2nc1O,> 100 µM (inactive),> 100 µM (inactive),27.5 µM (inactive),55.8 µM (inactive),> 100 µM (inactive),–,95.3 µM (inactive),77.6 µM (inactive),–,> 100 µM (inactive),> 100 µM (inactive),70.3 µM (inactive),> 100 µM (inactive),> 100,46.6 µM (inactive)
C/C(=N\N(C)C)C(CN1CCCCC1)C(c1ccccc1)c1c(O)c2ccccc2oc1=O (configuration not stated),> 100 µM (inactive),> 100 µM (inactive),> 100 µM (inactive),> 100 µM (inactive),–,> 100 µM (inactive),> 100 µM (inactive),> 100 µM (inactive),> 100 µM (inactive),> 100 µM (inactive),> 100 µM (inactive),> 100 µM (inactive),> 100 µM (inactive),> 100,> 100 µM (inactive)
COC12CC(O)=C(C(C)=O)C(=O)C1(C)c1c(OC(C)=O)c(C)c(O)c(C(C)=O)c1O2 (configuration not stated),18.9 µM (inactive),9.44 µM (inactive),15.7 µM (inactive),8.41 µM (inactive),18.3 µM (inactive),22.8 µM (inactive),20.5 µM (inactive),12 µM (inactive),10.2 µM (inactive),17.9 µM (inactive),31.9 µM (inactive),23.6 µM (inactive),16 µM (inactive),13.6,–
CC1=C(C(=O)Nc2ccc([N+](=O)[O-])cc2)C(c2cccc([N+](=O)[O-])c2)C(C(=O)Nc2ccc([N+](=O)[O-])cc2)=C(C)N1,48.2 µM (inactive),29.7 µM (inactive),–,12.6 µM (inactive),25.6 µM (inactive),64.3 µM (inactive),21.9 µM (inactive),12.1 µM (inactive),11.1 µM (inactive),25.2 µM (inactive),> 100 µM (inactive),21.6 µM (inactive),30.7 µM (inactive),61.7,20.5 µM (inactive)
Oc1cc(-c2c[nH]c3ccccc23)nc2cc3c(cc12)OCO3,> 100 µM (inactive),> 100 µM (inactive),–,> 100 µM (inactive),> 100 µM (inactive),84.3 µM (inactive),> 100 µM (inactive),–,> 100 µM (inactive),23.6 µM (inactive),–,> 100 µM (inactive),> 100 µM (inactive),> 100,–
O=C(O)CP(=S)(S)c1ccccc1 (configuration not stated),> 100 µM (inactive),> 100 µM (inactive),> 100 µM (inactive),> 100 µM (inactive),–,> 100 µM (inactive),> 100 µM (inactive),> 100 µM (inactive),> 100 µM (inactive),> 100 µM (inactive),–,> 100 µM (inactive),> 100 µM (inactive),–,> 100 µM (inactive)
